From ChEMBL document CHEMBL1140504, “Mimetics of the tri- and tetrasaccharide epitope of GQ1balpha as myelin-associated glycoprotein (MAG) ligands” (Bioorg Med Chem, 2007) come the findings set out here.

Structures are written as SMILES. Activity calls are given as the source filed them. The rule behind the calls is not given here.

This assay addresses T1, Myelin-associated glycoprotein (Homo sapiens) (UniProt P20916).
T1 sequence (whole entry): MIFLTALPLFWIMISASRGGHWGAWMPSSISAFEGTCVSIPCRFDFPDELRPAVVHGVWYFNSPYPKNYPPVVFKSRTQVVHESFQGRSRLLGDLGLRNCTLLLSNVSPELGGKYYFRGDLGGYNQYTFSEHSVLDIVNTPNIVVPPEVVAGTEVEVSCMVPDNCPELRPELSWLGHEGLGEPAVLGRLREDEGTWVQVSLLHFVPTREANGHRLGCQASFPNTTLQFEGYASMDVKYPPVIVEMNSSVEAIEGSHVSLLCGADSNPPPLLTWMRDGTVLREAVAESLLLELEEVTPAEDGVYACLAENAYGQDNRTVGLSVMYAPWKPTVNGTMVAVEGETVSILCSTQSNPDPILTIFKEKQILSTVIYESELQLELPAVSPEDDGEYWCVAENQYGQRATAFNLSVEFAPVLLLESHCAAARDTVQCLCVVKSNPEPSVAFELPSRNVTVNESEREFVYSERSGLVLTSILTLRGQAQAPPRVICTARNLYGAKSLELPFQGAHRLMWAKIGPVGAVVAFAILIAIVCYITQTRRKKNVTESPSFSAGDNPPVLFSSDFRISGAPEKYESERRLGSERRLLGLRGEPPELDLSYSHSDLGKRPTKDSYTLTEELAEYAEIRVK
Nature of the assay: Ratio of IC50 for drug to sodium (2S,4S,5R,6R)-5-acetami do-2-((2R,3R,4S,5S,6R)-2-((2R, 3R,4S,6S)-3-acetamido-6-(hydro xymethyl)-2-(2-(trimethylsilyl )ethoxy)-tetrahydro-2H-pyran-4 -yloxy)-3,5-dihydroxy-6-(hydro xymethyl)-tetrahydro-2H-pyran- 4-yloxy)-4-hydroxy-6-((1S,2R)- 1,2,3-trihydroxypropyl)-tetrah ydro-2H-pyran-2-carboxylate for human recombinant MAG N-terminal domain expressed in CHO cells. In kind it is cell-based.

Consider `CC(=O)N[C@H]1[C@H]([C@@H](O)[C@H](O)CO)O[C@@](OCc2ccccc2)(C(=O)O)C[C@@H]1O`, for which the Ratio IC50 worked out at 0.62.

Consider `CC(=O)N[C@H]1[C@H](OCC[Si](C)(C)C)O[C@H](CO[C@]2(C(=O)O)C[C@H](O)[C@@H](NC(C)=O)[C@H]([C@H](O)[C@H](O)CO)O2)C[C@@H]1O[C@@H]1O[C@H](CO)[C@H](O)[C@H](O[C@]2(C(=O)O)C[C@H](O)[C@@H](NC(C)=O)[C@H]([C@@H](O)[C@H](O)CO)O2)[C@H]1O`, for which the Ratio IC50 is 4.

Take `CC(=O)N[C@H]1[C@H]([C@@H](O)[C@H](O)CO)O[C@](OCc2cccc(Oc3ccccc3)c2)(C(=O)O)C[C@@H]1O`: the outcome was inactive.

As for `CC(=O)N[C@H]1[C@H]([C@@H](O)[C@H](O)CO)O[C@@](Oc2cccc(-c3cn(CC(=O)O)nn3)c2)(C(=O)O)C[C@@H]1O`, the Ratio IC50 is 1.1.

With `CC(=O)N[C@H]1[C@H]([C@@H](O)[C@H](O)CO)O[C@@](Oc2cccc(-c3ccc(CC(=O)O)cc3)c2)(C(=O)O)C[C@@H]1O`, the Ratio IC50 worked out at 1.

Turning to `CC(=O)N[C@H]1[C@H]([C@@H](O)[C@H](O)CO)O[C@@](OCc2ccc(-c3ccccc3)cc2)(C(=O)O)C[C@@H]1O`, the Ratio IC50 was 0.38.

As to `CC(=O)N[C@H]1[C@H]([C@@H](O)[C@H](O)CO)O[C@](Oc2ccc(Oc3ccccc3)cc2)(C(=O)O)C[C@@H]1O`, the result was inactive.

Take `CC(=O)N[C@H]1[C@H]([C@@H](O)[C@H](O)CO)O[C@@](Oc2cccc(-c3cn(-c4ccc(C(=O)O)cc4)nn3)c2)(C(=O)O)C[C@@H]1O`: the Ratio IC50 amounted to 0.9.

For the compound `CO[C@]1(C(=O)O)C[C@H](O)[C@@H](NC(C)=O)[C@H]([C@@H](O)[C@H](O)CO)O1`, the Ratio IC50 is 0.07.

Turning to `CC(=O)N[C@H]1[C@H]([C@@H](O)[C@H](O)CO)O[C@@](Oc2ccc(Oc3ccccc3)cc2)(C(=O)O)C[C@@H]1O`, the Ratio IC50 came to 0.89.
